Measurements reported in ChEMBL document CHEMBL1157539, “Thousands of chemical starting points for antimalarial lead identification” (Nature, 2010).

tested on: Plasmodium falciparum; experiment: GSK_TCMDC: Inhibition of Plasmodium falciparum 3D7 in whole erythrocytes, using parasite LDH activity as an index of growth.; assay type: functional, organism-based; conditions: not given

| SMILES | XC50 [nM] |
| --- | --- |
| O[C@@H](c1cc(C(F)(F)F)nc2c(C(F)(F)F)cccc12)[C@H]1CCCCN1 | 69.2 |
| NC(=O)c1ccc2[nH]cc(C3CCN(CC4CCC(NC(=O)/C=C/c5ccc(Cl)c(Cl)c5)CC4)CC3)c2c1 (configuration not stated) | 867 |

same assay, conditions: Plasmodium falciparum, 3D7

| SMILES | XC50 [nM] |
| --- | --- |
| O=C(/C=C/c1ccc(Cl)c(Cl)c1)NC1CCN(Cc2ccc(O)cc2)CC1 | 691 |
| CN1CCN(c2ccnc3ccc(NC(=O)c4ccc(Cl)c(Cl)c4)cc23)CC1 | 710 |
| CCOc1ccc(C(C)NC(=O)c2ccc(OC)c(Br)c2)cc1OCC (configuration not stated) | 706 |
| C[C@H](NC(=O)c1cc(-c2ccc(C(C)(C)C)cc2)no1)C(=O)O.C[C@H](NC(=O)c1conc1-c1ccc(C(C)(C)C)cc1)C(=O)O | 140 |
| Cc1ccc(NC(=O)Nc2ccccc2F)cc1-c1ccc(C(=O)Nc2ccncc2)cc1 | 563 |
| Cc1cccc(C(=O)Nc2ccnc(N3CCC(N(C)Cc4cccc(C#N)c4)CC3)c2)c1 | 1100 |
| COc1c(C2CCN(CCCCNC(=O)c3ccc(-c4ccc(NC(=O)C(F)(F)F)cc4)cc3)CC2)ccc2c1CCCC2 | 1000 |
| Clc1ccc2nnc(-c3c(Cl)cccc3Cl)n2n1 | 905 |
| O=C(Nc1cccc(C(F)(F)F)c1)c1cccc(S(=O)(=O)NCC2CCCN2CC2CCCCC2)c1 (configuration not stated) | 1110 |
| Cc1cc(N/N=C/c2cccc([N+](=O)[O-])c2)c2ccc(F)cc2n1 | 690 |
| Brc1ccsc1-c1nc(NCCC(c2ccccc2)c2ccccc2)no1 | 1080 |
| CC(CNC1CCN(CCn2c(=O)ccc3ccc(F)cc32)CC1)c1ccccc1 (configuration not stated) | 1270 |
| Cc1cccc(/C=C/C(=O)NC2CCC(N3CCC(c4ccccc4C)CC3)CC2)c1 (configuration not stated) | 1110 |
| c1cncc(-c2cccc(CNc3nccc(Nc4ccc(OCCN5CCOCC5)cc4)n3)c2)c1 | 1060 |
| Cn1ccc2c3c(N)nc(N)nc3ccc21 | 902 |
| Oc1ccc(CCNCCCCCCNCCc2ccc(Cl)c(Cl)c2)cc1O | 726 |
| CS(=O)(=O)c1cccc(-c2cnc(N)c3cc(-c4cccc(F)c4)ccc23)c1 | 860 |
| C=C(C)COc1ccc(-c2n[nH]c(C(F)(F)F)c2-c2ccccc2OC)c(O)c1 | 781 |
| N#Cc1ccc(CN2CCC(NC(=O)c3ccc(-c4nnc(-c5cccc6ccccc56)o4)cc3)CC2)cc1 | 684 |
| N#Cc1ccc(N[C@@H](CC2CCCCC2)C(=O)NCc2cc(Cl)cc(Cl)c2)c2ccccc12 | 1100 |
| Cc1noc(C)c1-c1cccc(CNCc2ccc(-c3ccc(-c4nc5cccc(C)c5[nH]4)cc3)cc2)c1 | 239 |
| COc1ccc(C2C(C(=O)Nc3cc(Cl)c(OC)cc3OC)c3ccccc3C(=O)N2C)cc1 (configuration not stated) | 820 |
| COc1ccc2[nH]ccc(=NN=Cc3ccccc3F)c2c1 | 620 |
| CCc1cn2c3c(cc(C(=O)N[C@@H](Cc4ccccc4)[C@H](O)CNC4CCCCC4)cc13)N(C)S(=O)(=O)C2 | 87.1 |

| SMILES | XC50 [nM] |
| --- | --- |
| O=C(/C=C/c1ccc(Cl)c(Cl)c1)Nc1cccc(CN2CCC(c3c[nH]c4ccc(O)cc34)CC2)c1 | 945 |
| CC[C@H](C)CNC(=O)c1ccnc(-c2ccc(CNC3Cc4ccccc4C3)cc2)c1 | 569 |
| O=C(NC1CCC(N2CCN(c3cccc4[nH]ccc34)CC2)CC1)c1cc2cccnc2[nH]1 (configuration not stated) | 492 |
| CC1CCCN(S(=O)(=O)c2ccc(NC(=O)c3cc(-c4ccccc4O)n[nH]3)cc2)C1 (configuration not stated) | 757 |
| CNC(=O)COc1cc(C)c(C2CCN(CCCCNC(=O)c3ccc(-c4ccc(C(F)(F)F)cc4)cc3)CC2)cc1C | 868 |
| COc1cc2nc(N(C)Cc3cc4c(Cl)cccc4s3)nc(N)c2cc1OC | 953 |
| Cc1ccc(NC(=O)c2ccc(Cl)cc2)cc1-c1ccc(C(=O)Nc2ccncc2)cc1 | 779 |
| Cc1nc(-c2cccc(C(F)(F)F)c2)n2nc(Nc3ccc(OCCN4CCCC4)cc3)ncc12 | 751 |
| O=C(Nc1ccc2c(c1)CCN(C1CCC1)CC2)c1cn(-c2ccccc2)nc1-c1ccccc1 | 808 |
| COc1cccc(NC(=O)c2ccc(NCCCN3CCC(C)CC3)c([N+](=O)[O-])c2)c1 | 770 |
| COc1ccc(NC(=O)[C@H](CC(C)C)Nc2cc(C)nc(NCCc3cccs3)n2)cc1 | 964 |
| O=C(/C=C/c1ccc(Cl)c(Cl)c1)N1CCC(CNCc2cccc3cc[nH]c23)CC1 | 1220 |
| CC(C)N(C(=O)CSc1nc2cc(Cl)ccc2c(=O)n1Cc1ccccc1)C(C)C | 167 |
| O=c1cc(NC[C@H]2CCC[C@@H]2NC2CCCc3c2[nH]c2ccccc32)[nH]c2ccccc12 (some centres not stated) | 786 |
| CC(C)C[C@H](NC(=O)OC(C)(C)C)C(=O)Nc1ccc(Cc2ccc(NC(=O)[C@H](CC(C)C)NC(=O)OC(C)(C)C)cc2)cc1 | 761 |
| CN(C)CCOc1cc(NC(=O)Nc2ccc(-c3ccncc3)c3ccccc23)ccc1I | 777 |
| Cc1cc(CNCCCCCNCc2ccc(Cl)cc2)ccc1O | 706 |
| O=C(/C=C/c1ccc(I)cc1)NCCCCCN1CCC(c2c[nH]c3ccccc23)CC1 | 836 |
| CC(C)CNCc1ccc(-c2ccccc2CN(C(=O)NCCc2ccccc2)C2CCN(Cc3ccccc3)CC2)cc1 | 878 |
| Cc1cccc2nc(-c3cccc(-c4cccc(CNCCN5CCNCC5)c4)c3)[nH]c12 | 970 |
| N#Cc1cccc(C(=O)Nc2cccc(-c3ccc(CN4CCCC4)cc3)c2)c1 | 695 |
| Cc1nc(N)nc(N)c1OCc1cccc2ccccc12 | 72.7 |
| CN1CCN(c2ccnc3ccc(NC(=O)Nc4cccc5c(-c6ccncc6)cccc45)cc23)CC1 | 877 |
| CCCc1cc(NCc2ccncc2)nc(Nc2ccc(F)cc2)n1 | 1120 |

| SMILES | XC50 [nM] |
| --- | --- |
| CCCc1ccc2c(c1O)CCC(N(CCC)CCC)C2 (configuration not stated) | 886 |
| Cc1csc(NC(=O)c2cn(-c3ccccc3)nc2-c2cccs2)n1 | 911 |
| CCOc1cc(C(=O)NC2CCN(Cc3ccccc3)CC2)ccc1-c1nc2cc(Cl)c(Cl)cc2[nH]1 | 469 |
| Cc1cc(N2CCC(C)CC2)nc2cc(O)ccc12 | 1180 |
| O=C(Nc1ccc(F)cc1)NC1CCN(c2ccnc3ccccc23)C1 (configuration not stated) | 873 |
| Cc1ccc(-n2c(=O)c3cccnc3n2CC(=O)Nc2cccc(C)c2C)cc1 | 865 |
| O=[N+]([O-])c1ccc(C(O)P(=O)(c2ccccc2)c2ccccc2)cc1 (configuration not stated) | 341 |
| COCCSc1nc2scc(C)c2c(=O)n1Cc1cccc(OC)c1 | 912 |
| CON=C1CCC(Cn2ccnc2)(c2ccc(Cl)cc2Cl)CC1 (configuration not stated) | 875 |
| CCOc1cc(-c2nnc3[nH]c(=O)n(C)c(=O)c3n2)ccc1OC(C)C | 400 |
| Nc1nc(Nc2cccc(O)c2)nc2ccccc12 | 791 |
| Cc1cc(N2CCCCC2)nc2ccc(NC(=O)c3cccc([N+](=O)[O-])c3)cc12 | 378 |
| O[C@@H](c1cc(C(F)(F)F)nc2c(C(F)(F)F)cccc12)[C@H]1CCCCN1 | 73.7 |
| Cc1ccc2[nH]c(-c3ccc(C=CC(=O)NCc4ccc(Cl)c(Cl)c4)cc3)nc2c1 | 901 |
| NC(=O)c1cnc2ccc(-c3cncs3)cc2c1Nc1ccc(F)c(Cl)c1 | 182 |
| OC1CCCN(Cc2ccc(-c3cccc(-c4nc5ccccc5[nH]4)c3)cc2)C1 (configuration not stated) | 1340 |
| N=C(Nc1ccccc1)Nc1cccc(Cc2ccc([N+](=O)[O-])cc2)n1 | 945 |
| C#Cc1cccc(NC(=O)[C@H](CC2CCCCC2)Nc2ccc(C#N)c3ccccc23)c1 | 588 |
| CCc1cn(CC(=O)N(CCOc2ccc(-c3ccc(C(F)(F)F)cc3)cc2)CCN(CC)CC)c(SCc2ccc(F)cc2)nc1=O | 777 |
| O=C(Nc1cc(Cl)cc(Cl)c1)N[C@H]1CCN(CCCCCNC(=O)C2CC2c2ccc(Cl)c(Cl)c2)C1 (some centres not stated) | 856 |
| COc1ccc(NC(=O)Nc2cc(C)nc3ccccc23)cc1Cl | 688 |
| NC(=O)c1ccc2[nH]cc(C3CCN(CC4CCC(NC(=O)/C=C/c5ccc(Cl)c(Cl)c5)CC4)CC3)c2c1 (configuration not stated) | 761 |
